The source of these data is patent publication US11795177B2, “Substituted quinoline analogs as aldehyde dehydrogenase 1A1 (ALDH1A1) inhibitors” (THE UNITED STATES OF AMERICA, AS REPRESENTED BY THE …, priority 2017, dated 2023).

Bounds are passed on as bounds.

The test system of one assay is MIA PaCa-2 cells. Kind of assay: MIA PaCa2 cell-based assay (1,536-well high-content imaging ALDEFLUOR assay). Further details: species or system human. The note with it: Homo sapiens, 0.5 h, ALDEFLUOR BAAA substrate 500 nM, 30 minutes. Put shortly: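 MIA PaCa-2 cells (1,000/well), plated overnight, given BAAA substrate (500 nM) plus Hoechst 33342 (0.5 nM), then compound (16-point, 1.4 nM–47.8 μM final; 0.5% DMSO). After 30 min at 37° C, ALDH activity imaged by high-content microscopy as BAA-retaining (FITC) cells versus Hoechst-stained nuclei.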

The target of the next assay is T1, ALDH1A1 enzyme (Homo sapiens, UniProt P00352).
T1 sequence (P00352 1-501): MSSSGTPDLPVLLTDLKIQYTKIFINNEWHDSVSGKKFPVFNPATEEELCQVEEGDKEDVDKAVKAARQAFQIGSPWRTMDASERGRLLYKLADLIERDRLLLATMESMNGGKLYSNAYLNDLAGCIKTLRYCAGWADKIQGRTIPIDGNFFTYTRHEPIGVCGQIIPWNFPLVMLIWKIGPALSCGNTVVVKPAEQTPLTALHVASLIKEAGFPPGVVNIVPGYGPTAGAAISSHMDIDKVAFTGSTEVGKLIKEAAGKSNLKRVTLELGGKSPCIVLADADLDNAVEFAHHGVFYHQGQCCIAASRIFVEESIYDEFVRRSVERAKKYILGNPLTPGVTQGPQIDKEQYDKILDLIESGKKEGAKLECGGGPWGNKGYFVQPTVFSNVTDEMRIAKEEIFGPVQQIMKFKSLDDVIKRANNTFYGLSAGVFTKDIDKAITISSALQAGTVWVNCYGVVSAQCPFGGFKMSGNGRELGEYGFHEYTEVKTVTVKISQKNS
Nature of the assay: ALDH1A1 enzymatic assay (in vitro). It is filed as biochemical. The note with it: ALDH1A1 enzyme 20 nM, NAD+ 1 mM, propionaldehyde 80 μM; read-out: ALDH1A1 IC50. Put shortly:
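ALDH1A1 (20 nM final) in 100 mM HEPES pH 7.5, 0.01% Tween 20 was preincubated 15 min at RT with compound (968 pM–57.2 μM final), then started with 1 mM NAD+ and 80 μM propionaldehyde. NADH fluorescence (ex 340/em 450 nm) followed kinetically for 10 min; change normalized to no-inhibitor and no-enzyme controls for percent inhibition and curve fitting.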

One may read the IC50 as the concentration that gives 50% inhibition. Take `COc1ccc2c(N3CCC(C)(C#N)CC3)c(C(=O)N3CCN(C(=O)C(C)C)CC3)cnc2c1` [Example 103, 1-(3-(4-isobutyrylpiperazine-1-carbonyl)-7-methoxyquinolin-4-yl)-4-methylpiperidine-4-carbonitrile]: the IC50 in the assay with MIA PaCa-2 cells is 1000 to 10000 nM; on ALDH1A1 enzyme, less than 500 nM.

In the case of `COc1ccc2c(N3CCC(C)(C#N)CC3)c(C(=O)N3CCN(C(C)=O)CC3)cnc2c1` [Example 104, 1-(3-(4-acetylpiperazine-1-carbonyl)-7-methoxyquinolin-4-yl)-4-methylpiperidine-4-carbonitrile], the IC50 was more than 10000 nM in the assay on MIA PaCa-2 cells and less than 500 nM on ALDH1A1 enzyme.

As for `COc1ccc2c(N3CCC(C)(C#N)CC3)c(C(=O)N3CCN(S(C)(=O)=O)CC3)cnc2c1` [Example 105, 1-(7-methoxy-3-(4-(methylsulfonyl)piperazine-1-carbonyl)quinolin-4-yl)-4-methylpiperidine-4-carbonitrile], the values for the IC50 in the assay on MIA PaCa-2 cells and on ALDH1A1 enzyme were 1000 to 10000 nM and less than 500 nM, respectively.

Turning to `COc1ccc2c(N3CCC(C)(C#N)CC3)c(C(=O)N3CCN(S(=O)(=O)C4CC4)CC3)cnc2c1` [Example 106, 1-(3-(4-(cyclopropylsulfonyl)piperazine-1-carbonyl)-7-methoxyquinolin-4-yl)-4-methylpiperidine-4-carbonitrile], the half-inhibitory concentration (IC50) was 1000 to 10000 nM in the assay with MIA PaCa-2 cells and less than 500 nM at ALDH1A1 enzyme.

In the case of `CCNC(=O)N1CCN(C(=O)c2cnc3cc(OC)ccc3c2N2CCC(C)(C#N)CC2)CC1` [Example 107, 4-(4-(4-cyano-4-methylpiperidin-1-yl)-7-methoxyquinoline-3-carbonyl)-N-ethylpiperazine-1-carboxamide], the IC50 with MIA PaCa-2 cells is 1000 to 10000 nM; on ALDH1A1 enzyme, less than 500 nM.

As to `CCOC(=O)N1CCN(C(=O)c2cnc3cc(OC)ccc3c2N2CCC(C)(C#N)CC2)CC1` [Example 108, Ethyl 4-(4-(4-cyano-4-methylpiperidin-1-yl)-7-methoxyquinoline-3-carbonyl)piperazine-1-carboxylate], the figures for the IC50 with MIA PaCa-2 cells and on ALDH1A1 enzyme were 1000 to 10000 nM and less than 500 nM, respectively.

As to `COc1cc2ncc(C(=O)N3CCN(C(=O)C4CC4)CC3)c(N3CCC(C)(C#N)CC3)c2cc1OC` [Example 109, 1-(3-(4-(cyclopropanecarbonyl)piperazine-1-carbonyl)-6,7-dimethoxyquinolin-4-yl)-4-methylpiperidine-4-carbonitrile], the concentration for half-maximal inhibition (IC50) in the assay with MIA PaCa-2 cells was 1000 to 10000 nM; at ALDH1A1 enzyme it was less than 500 nM.

With `CCC(=O)N1CCN(C(=O)c2cnc3cc(OC)c(OC)cc3c2N2CCC(C)(C#N)CC2)CC1` [Example 110, 1-(6,7-dimethoxy-3-(4-propionylpiperazine-1-carbonyl)quinolin-4-yl)-4-methylpiperidine-4-carbonitrile], the 50% inhibitory concentration (IC50) was 1000 to 10000 nM with MIA PaCa-2 cells and less than 500 nM on ALDH1A1 enzyme.

Consider `COc1cc2ncc(C(=O)N3CCN(C(=O)C(C)C)CC3)c(N3CCC(C)(C#N)CC3)c2cc1OC` [Example 111, 1-(3-(4-isobutyrylpiperazine-1-carbonyl)-6,7-dimethoxyquinolin-4-yl)-4-methylpiperidine-4-carbonitrile], for which the IC50 with MIA PaCa-2 cells was 1000 to 10000 nM; at ALDH1A1 enzyme, less than 500 nM.

For `COc1cc2ncc(C(=O)N3CCN(C(C)=O)CC3)c(N3CCC(C)(C#N)CC3)c2cc1OC` [Example 112, 1-(3-(4-acetylpiperazine-1-carbonyl)-6,7-dimethoxyquinolin-4-yl)-4-methylpiperidine-4-carbonitrile], the IC50 with MIA PaCa-2 cells was 1000 to 10000 nM; at ALDH1A1 enzyme it was less than 500 nM.

In the case of `COc1cc2ncc(C(=O)N3CCN(S(C)(=O)=O)CC3)c(N3CCC(C)(C#N)CC3)c2cc1OC` [Example 113, 1-(6,7-dimethoxy-3-(4-(methylsulfonyl)piperazine-1-carbonyl)quinolin-4-yl)-4-methylpiperidine-4-carbonitrile], the concentration for half-maximal inhibition (IC50) is 1000 to 10000 nM in the assay with MIA PaCa-2 cells and less than 500 nM on ALDH1A1 enzyme.

For the molecule `COc1cc2ncc(C(=O)N3CCN(S(=O)(=O)C4CC4)CC3)c(N3CCC(C)(C#N)CC3)c2cc1OC` [Example 114, 1-(3-(4-(cyclopropylsulfonyl)piperazine-1-carbonyl)-6,7-dimethoxyquinolin-4-yl)-4-methylpiperidine-4-carbonitrile], the half-inhibitory concentration (IC50) in the assay with MIA PaCa-2 cells is 1000 to 10000 nM; on ALDH1A1 enzyme, less than 500 nM.

For `CCNC(=O)N1CCN(C(=O)c2cnc3cc(OC)c(OC)cc3c2N2CCC(C)(C#N)CC2)CC1` [Example 115, 4-(4-(4-cyano-4-methylpiperidin-1-yl)-6,7-dimethoxyquinoline-3-carbonyl)-N-ethylpiperazine-1-carboxamide], the half-maximal inhibitory concentration (IC50) in the assay with MIA PaCa-2 cells was more than 10000 nM; at ALDH1A1 enzyme it was less than 500 nM.

On to `CCOC(=O)N1CCN(C(=O)c2cnc3cc(OC)c(OC)cc3c2N2CCC(C)(C#N)CC2)CC1` [Example 116, Ethyl 4-(4-(4-cyano-4-methylpiperidin-1-yl)-6,7-dimethoxyquinoline-3-carbonyl)piperazine-1-carboxylate], for which the half-maximal inhibitory concentration (IC50) was 1000 to 10000 nM in the assay on MIA PaCa-2 cells and less than 500 nM at ALDH1A1 enzyme.

With `CC1(C#N)CCN(c2c(C(=O)N3CCN(C(=O)C4CC4)CC3)cnc3ccc(Cl)cc23)CC1` [Example 117, 1-(6-chloro-3-(4-(cyclopropanecarbonyl)piperazine-1-carbonyl)quinolin-4-yl)-4-methylpiperidine-4-carbonitrile], the IC50 is 1000 to 10000 nM with MIA PaCa-2 cells and less than 500 nM on ALDH1A1 enzyme.

Regarding `CCC(=O)N1CCN(C(=O)c2cnc3ccc(Cl)cc3c2N2CCC(C)(C#N)CC2)CC1` [Example 118, 1-(6-chloro-3-(4-propionylpiperazine-1-carbonyl)quinolin-4-yl)-4-methylpiperidine-4-carbonitrile], the 50% inhibitory concentration (IC50) was 1000 to 10000 nM in the assay with MIA PaCa-2 cells and less than 500 nM at ALDH1A1 enzyme.

Consider `CC1(C#N)CCN(c2c(C(=O)N3CCN(S(C)(=O)=O)CC3)cnc3ccc(Cl)cc23)CC1` [Example 119, 1-(6-chloro-3-(4-(methylsulfonyl)piperazine-1-carbonyl)quinolin-4-yl)-4-methylpiperidine-4-carbonitrile], for which the IC50 in the assay on MIA PaCa-2 cells was 1000 to 10000 nM; on ALDH1A1 enzyme, less than 500 nM.

As for `CC1(C#N)CCN(c2c(C(=O)N3CCN(S(=O)(=O)C4CC4)CC3)cnc3ccc(Cl)cc23)CC1` [Example 120, 1-(6-chloro-3-(4-(cyclopropylsulfonyl)piperazine-1-carbonyl)quinolin-4-yl)-4-methylpiperidine-4-carbonitrile], the values for the IC50 in the assay on MIA PaCa-2 cells and on ALDH1A1 enzyme were 1000 to 10000 nM and less than 500 nM, respectively.

For `CCNC(=O)N1CCN(C(=O)c2cnc3ccc(Cl)cc3c2N2CCC(C)(C#N)CC2)CC1` [Example 121, 4-(6-chloro-4-(4-cyano-4-methylpiperidin-1-yl)quinoline-3-carbonyl)-N-ethylpiperazine-1-carboxamide], the half-inhibitory concentration (IC50) is 1000 to 10000 nM with MIA PaCa-2 cells and less than 500 nM at ALDH1A1 enzyme.

Take `COc1c(F)cc2c(N3CCC4(CC3)OCCO4)c(C(=O)N3CCN(C(=O)C4CC4)CC3)cnc2c1F` [Example 123, (4-(cyclopropanecarbonyl)piperazin-1-yl)(6,8-difluoro-7-methoxy-4-(1,4-dioxa-8-azaspiro[4.5]decan-8-yl)quinolin-3-yl)methanone]: the half-maximal inhibitory concentration (IC50) is 1000 to 10000 nM with MIA PaCa-2 cells and less than 500 nM at ALDH1A1 enzyme.

As to `O=C(c1cnc2c(F)c(F)c(F)cc2c1N1CCC2(CC1)OCCO2)N1CCN(C(=O)C2CC2)CC1` [Example 124, (4-(cyclopropanecarbonyl)piperazin-1-yl)(6,7,8-trifluoro-4-(1,4-dioxa-8-azaspiro[4.5]decan-8-yl)quinolin-3-yl)methanone], the results for the IC50 with MIA PaCa-2 cells and on ALDH1A1 enzyme were 1000 to 10000 nM and less than 500 nM, respectively.

As to `CC1(C#N)CCN(c2c(C(=O)N3CCN(C(=O)C4CC4)CC3)cnc3c(F)cc(F)cc23)CC1` [Example 125, 1-(3-(4-(cyclopropanecarbonyl)piperazine-1-carbonyl)-6,8-difluoroquinolin-4-yl)-4-methylpiperidine-4-carbonitrile], the values for the IC50 in the assay on MIA PaCa-2 cells and at ALDH1A1 enzyme were 1000 to 10000 nM and less than 500 nM, respectively.

In the case of `CC1(C#N)CCN(c2c(C(=O)N3CCN(C(=O)C4CC4)CC3)cnc3cc(F)c(F)cc23)CC1` [Example 126, 1-(3-(4-(cyclopropanecarbonyl)piperazine-1-carbonyl)-6,7-difluoroquinolin-4-yl)-4-methylpiperidine-4-carbonitrile], the concentration for half-maximal inhibition (IC50) is 1000 to 10000 nM in the assay on MIA PaCa-2 cells and less than 500 nM at ALDH1A1 enzyme.

With `COc1c(F)cc2c(N3CCC(C)(C#N)CC3)c(C(=O)N3CCN(C(=O)C4CC4)CC3)cnc2c1F` [Example 127, 1-(3-(4-(cyclopropanecarbonyl)piperazine-1-carbonyl)-6,8-difluoro-7-methoxyquinolin-4-yl)-4-methylpiperidine-4-carbonitrile], the IC50 was 1000 to 10000 nM with MIA PaCa-2 cells and less than 500 nM at ALDH1A1 enzyme.
